Measurements reported in EP4692114A1, “CALCITONIN ANALOGUE, AND DERIVATIVE THEREOF AND USE THEREOF” (Hangzhou Sciwind Biosciences Co., Ltd., priority 2023, dated 2024).
*1 amine or outer side, *2 acyl side, *3 side chain or, on linkers, in order; H or OH if unused. Where a SMILES comes first, the peptide text is derived from it. [ ]: non-standard residue; d: D form. The star is where a group is joined. C20 diacid = O=C(O)CCCCCCCCCCCCCCCCCCC(=O)*; γGlu = O=C(O)[C@H](CCC(=O)[*:2])N[*:1]; βAsp = O=C(O)[C@H](CC(=O)[*:2])N[*:1]; AEEA = NCCOCCOCC(=O)O; Inp = O=C(O)C1CCNCC1

Molecular target: T1, human amylin receptors (Homo sapiens, UniProt O60896+P30988)
T1 sequence (P30988 25-474): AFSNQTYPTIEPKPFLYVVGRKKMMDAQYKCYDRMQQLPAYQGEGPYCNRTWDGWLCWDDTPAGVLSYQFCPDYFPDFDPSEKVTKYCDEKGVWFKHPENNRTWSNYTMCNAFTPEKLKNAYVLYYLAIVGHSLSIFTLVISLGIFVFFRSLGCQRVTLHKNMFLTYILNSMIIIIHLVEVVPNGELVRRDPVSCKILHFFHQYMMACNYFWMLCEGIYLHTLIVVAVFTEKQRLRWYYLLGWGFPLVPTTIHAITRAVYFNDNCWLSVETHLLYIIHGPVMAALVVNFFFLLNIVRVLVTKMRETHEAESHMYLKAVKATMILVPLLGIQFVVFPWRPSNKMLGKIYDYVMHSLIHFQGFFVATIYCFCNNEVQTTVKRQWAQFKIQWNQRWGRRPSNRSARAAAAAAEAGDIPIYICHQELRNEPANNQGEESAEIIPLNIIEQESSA
T1 sequence (O60896 24-148 partner): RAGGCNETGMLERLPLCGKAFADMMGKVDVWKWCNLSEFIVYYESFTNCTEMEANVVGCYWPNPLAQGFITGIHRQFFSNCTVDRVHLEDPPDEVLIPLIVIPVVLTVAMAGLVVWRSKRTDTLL
Assay: Luciferase assay of amylin (amylin receptor/CRE-luc cell line);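 further: agonist potency from luminescence of cAMP response element-driven luciferase, EC50 derived from a standard curve of signal versus compound concentration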
Format: cell-based
Conditions: stably transfected amylin receptor/CRE-luc CHO cells (CHO-K1/Gal5/AMY3), 24 hours incubation, luciferase readout
Excerpt: The objective of this assay is to test the activity or potency of calcitonin analogues or derivatives on human amylin receptors in vitro using a luciferase assay.
Using the standard protocol, CHO-K1/Gal5/AMY3 cells (purchased from GenScript, with the calcitonin receptor and the receptor activity modifying peptide (RAMP) constructed already) were transfected with a plasmid containing a luciferase expression cassette driven by multiple copies of cAMP response elements (CREs). The cells were cultured in an F12 medium containing 200 ug/mL Zeocin, 2 ug/mL puromycin, 100 ug/mL hygromycin, and 400 ug/mL G418 to afford a stably transfected amylin receptor/CRE-luc cell line.
To each well of a white 96-well plate was added 50 µL of the tested sample solution at a respective concentration.
The stably transfected amylin receptor/CRE-luc CHO cells were resuspended in the growth medium at a certain density, and 50 µL of the cell suspension was added at a density of about 20000 cells per well to the white 96-well plate containing the tested sample solution. After incubation of 24 hours at 37°C and 5% CO2, 100 µL of a Luciferase substrate was added to each well, incubated for 3 minutes, and finally was tested for luminescence on SpectraMax L (Molecular Devices) with the software SoftMax Pro 7.0.3 GxP. A standard curve was plotted using the fluorescent intensities for calculation of EC50.

CC(C)C[C@H](NC(=O)[C@H](CCCNC(=N)N)NC(=O)CNC(=O)[C@H](CC(C)C)NC(=O)[C@@H](NC(=O)[C@H](C)NC(=O)[C@@H](NC(=O)[C@H](CO)NC(=O)[C@H](CC(C)C)NC(=O)[C@H](CCC(N)=O)NC(=O)[C@H](CO)NC(=O)[C@H](C)NC(=O)CC[C@H](NC(=O)CCCCCCCCCCCCCCCCCCC(=O)O)C(=O)O)[C@@H](C)O)C(C)C)C(=O)N[C@@H](CO)C(=O)N[C@@H](CCC(N)=O)C(=O)N[C@@H](CCC(=O)O)C(=O)N[C@@H](CC(C)C)C(=O)N[C@@H](Cc1c[nH]cn1)C(=O)N[C@@H](CCCNC(=N)N)C(=O)N[C@@H](CC(C)C)C(=O)N[C@@H](CCC(N)=O)C(=O)N[C@@H](CC(=O)O)C(=O)N[C@@H](Cc1ccc(O)cc1)C(=O)N1CCC[C@H]1C(=O)N[C@@H](CCCNC(=N)N)C(=O)N[C@H](C(=O)N[C@@H](CCC(N)=O)C(=O)N[C@H](C(=O)NCC(=O)N[C@@H](CO)C(=O)NCC(=O)N[C@@H](CO)C(=O)N1CCC[C@H]1C(N)=O)C(C)C)[C@@H](C)O [M15] ({C20 diacid-γGlu}-ASQLSTAVLGRLSQELHRLQDYPRTQVGSGSP-NH2)
EC50: 16 pM

CC(C)C[C@H](NC(=O)CC[C@H](NC(=O)CCCCCCCCCCCCCCCCCCC(=O)O)C(=O)O)C(=O)N[C@@H](CO)C(=O)N[C@@H](CCC(N)=O)C(=O)N[C@@H](CC(C)C)C(=O)N[C@@H](CO)C(=O)N[C@H](C(=O)N[C@@H](CC(C)C)C(=O)N[C@H](C(=O)N[C@@H](CC(C)C)C(=O)NCC(=O)N[C@@H](CCCNC(=N)N)C(=O)N[C@@H](CC(C)C)C(=O)N[C@@H](CO)C(=O)N[C@@H](CCC(N)=O)C(=O)N[C@@H](CCC(=O)O)C(=O)N[C@@H](CC(C)C)C(=O)N[C@@H](Cc1c[nH]cn1)C(=O)N[C@@H](CCCNC(=N)N)C(=O)N[C@@H](CC(C)C)C(=O)N[C@@H](CCC(N)=O)C(=O)N[C@@H](CC(=O)O)C(=O)N[C@@H](Cc1ccc(O)cc1)C(=O)N1CCC[C@H]1C(=O)N[C@@H](CCCNC(=N)N)C(=O)N[C@H](C(=O)N[C@@H](CC(=O)O)C(=O)N[C@H](C(=O)NCC(=O)N[C@@H](CO)C(=O)NCC(=O)N[C@@H](CO)C(=O)N1CCC[C@H]1C(N)=O)C(C)C)[C@@H](C)O)C(C)C)[C@@H](C)O [M25] ({C20 diacid-γGlu}-LSQLSTLVLGRLSQELHRLQDYPRTDVGSGSP-NH2)
EC50: 16 pM

CC(C)C[C@H](NC(=O)[C@H](CCCNC(=N)N)NC(=O)CNC(=O)[C@H](CC(C)C)NC(=O)[C@@H](NC(=O)[C@H](C)NC(=O)[C@@H](NC(=O)[C@H](CO)NC(=O)[C@H](CC(C)C)NC(=O)[C@H](CCC(N)=O)NC(=O)[C@H](CO)NC(=O)[C@H](C)NC(=O)[C@H](CCC(=O)O)NC(=O)CCCCCCCCCCCCCCCCCCC(=O)O)[C@@H](C)O)C(C)C)C(=O)N[C@@H](CO)C(=O)N[C@@H](CCC(=O)O)C(=O)N[C@@H](CCC(=O)O)C(=O)N[C@@H](CC(C)C)C(=O)N[C@@H](Cc1c[nH]cn1)C(=O)N[C@@H](CCCNC(=N)N)C(=O)N[C@@H](CC(C)C)C(=O)N[C@@H](CCC(N)=O)C(=O)N[C@@H](CC(=O)O)C(=O)N[C@@H](Cc1ccc(O)cc1)C(=O)N1CCC[C@H]1C(=O)N[C@@H](CCCNC(=N)N)C(=O)N[C@H](C(=O)N[C@@H](CC(=O)O)C(=O)N[C@H](C(=O)NCC(=O)N[C@@H](CO)C(=O)NCC(=O)N[C@@H](CO)C(=O)N1CCC[C@H]1C(N)=O)C(C)C)[C@@H](C)O [M52] ({C20 diacid}-EASQLSTAVLGRLSEELHRLQDYPRTDVGSGSP-NH2)
EC50: 17 pM

CC(C)C[C@H](NC(=O)[C@H](CCCNC(=N)N)NC(=O)CNC(=O)[C@H](CC(C)C)NC(=O)[C@@H](NC(=O)[C@H](C)NC(=O)[C@@H](NC(=O)[C@H](CO)NC(=O)[C@H](CC(C)C)NC(=O)[C@H](CCC(N)=O)NC(=O)[C@H](CO)NC(=O)[C@H](C)NC(=O)C[C@H](NC(=O)CCCCCCCCCCCCCCCCCCC(=O)O)C(=O)O)[C@@H](C)O)C(C)C)C(=O)N[C@@H](CO)C(=O)N[C@@H](CCC(=O)O)C(=O)N[C@@H](CCC(=O)O)C(=O)N[C@@H](CC(C)C)C(=O)N[C@@H](Cc1c[nH]cn1)C(=O)N[C@@H](CCCNC(=N)N)C(=O)N[C@@H](CC(C)C)C(=O)N[C@@H](CCC(N)=O)C(=O)N[C@@H](CC(=O)O)C(=O)N[C@@H](Cc1ccc(O)cc1)C(=O)N1CCC[C@H]1C(=O)N[C@@H](CCCNC(=N)N)C(=O)N[C@H](C(=O)N[C@@H](CC(=O)O)C(=O)N[C@H](C(=O)NCC(=O)N[C@@H](CO)C(=O)NCC(=O)N[C@@H](CO)C(=O)N1CCC[C@H]1C(N)=O)C(C)C)[C@@H](C)O [M53] ({C20 diacid-βAsp}-ASQLSTAVLGRLSEELHRLQDYPRTDVGSGSP-NH2)
EC50: 17 pM

CC(C)C[C@H](NC(=O)[C@H](CCCNC(=N)N)NC(=O)CNC(=O)[C@H](CC(C)C)NC(=O)[C@@H](NC(=O)[C@H](C)NC(=O)[C@@H](NC(=O)[C@H](CO)NC(=O)[C@H](CC(C)C)NC(=O)[C@H](CCC(N)=O)NC(=O)[C@H](CO)NC(=O)[C@H](C)NC(=O)[C@H](CC(=O)O)NC(=O)CCCCCCCCCCCCCCCCCCC(=O)O)[C@@H](C)O)C(C)C)C(=O)N[C@@H](CO)C(=O)N[C@@H](CCC(=O)O)C(=O)N[C@@H](CCC(=O)O)C(=O)N[C@@H](CC(C)C)C(=O)N[C@@H](Cc1c[nH]cn1)C(=O)N[C@@H](CCCNC(=N)N)C(=O)N[C@@H](CC(C)C)C(=O)N[C@@H](CCC(N)=O)C(=O)N[C@@H](CC(=O)O)C(=O)N[C@@H](Cc1ccc(O)cc1)C(=O)N1CCC[C@H]1C(=O)N[C@@H](CCCNC(=N)N)C(=O)N[C@H](C(=O)N[C@@H](CC(=O)O)C(=O)N[C@H](C(=O)NCC(=O)N[C@@H](CO)C(=O)NCC(=O)N[C@@H](CO)C(=O)N1CCC[C@H]1C(N)=O)C(C)C)[C@@H](C)O [M54] ({C20 diacid}-DASQLSTAVLGRLSEELHRLQDYPRTDVGSGSP-NH2)
EC50: 17 pM

CC(C)C[C@H](NC(=O)[C@H](CCCNC(=N)N)NC(=O)CNC(=O)[C@H](CC(C)C)NC(=O)[C@@H](NC(=O)[C@H](C)NC(=O)[C@@H](NC(=O)[C@H](CO)NC(=O)[C@H](CC(C)C)NC(=O)[C@H](CCC(N)=O)NC(=O)[C@H](CO)NC(=O)[C@H](C)NC(=O)C1CCN(C(=O)CCCCCCCCCCCCCCCCCCC(=O)O)CC1)[C@@H](C)O)C(C)C)C(=O)N[C@@H](CO)C(=O)N[C@@H](CCC(=O)O)C(=O)N[C@@H](CCC(=O)O)C(=O)N[C@@H](CC(C)C)C(=O)N[C@@H](Cc1c[nH]cn1)C(=O)N[C@@H](CCCNC(=N)N)C(=O)N[C@@H](CC(C)C)C(=O)N[C@@H](CCC(N)=O)C(=O)N[C@@H](CC(=O)O)C(=O)N[C@@H](Cc1ccc(O)cc1)C(=O)N1CCC[C@H]1C(=O)N[C@@H](CCCNC(=N)N)C(=O)N[C@H](C(=O)N[C@@H](CC(=O)O)C(=O)N[C@H](C(=O)NCC(=O)N[C@@H](CO)C(=O)NCC(=O)N[C@@H](CO)C(=O)N1CCC[C@H]1C(N)=O)C(C)C)[C@@H](C)O [M56] ({C20 diacid-Inp}-ASQLSTAVLGRLSEELHRLQDYPRTDVGSGSP-NH2)
EC50: 17 pM

CC(C)C[C@H](NC(=O)[C@H](CCCNC(=N)N)NC(=O)CNC(=O)[C@H](CC(C)C)NC(=O)[C@@H](NC(=O)[C@H](C)NC(=O)[C@@H](NC(=O)[C@H](CO)NC(=O)[C@H](CC(C)C)NC(=O)[C@H](CCC(N)=O)NC(=O)[C@H](CO)NC(=O)[C@H](C)NC(=O)COCCOCCNC(=O)COCCOCCNC(=O)CC[C@H](NC(=O)CCCCCCCCCCCCCCCCCCC(=O)O)C(=O)O)[C@@H](C)O)C(C)C)C(=O)N[C@@H](CO)C(=O)N[C@@H](CCC(=O)O)C(=O)N[C@@H](CCC(=O)O)C(=O)N[C@@H](CC(C)C)C(=O)N[C@@H](Cc1c[nH]cn1)C(=O)N[C@@H](CCCNC(=N)N)C(=O)N[C@@H](CC(C)C)C(=O)N[C@@H](CCC(N)=O)C(=O)N[C@@H](CC(=O)O)C(=O)N[C@@H](Cc1ccc(O)cc1)C(=O)N1CCC[C@H]1C(=O)N[C@@H](CCCNC(=N)N)C(=O)N[C@H](C(=O)N[C@@H](CC(=O)O)C(=O)N[C@H](C(=O)NCC(=O)N[C@@H](CO)C(=O)NCC(=O)N[C@@H](CO)C(=O)N1CCC[C@H]1C(N)=O)C(C)C)[C@@H](C)O [M57] ({C20 diacid-γGlu-AEEA-AEEA}-ASQLSTAVLGRLSEELHRLQDYPRTDVGSGSP-NH2)
EC50: 17 pM

CC(C)C[C@H](NC(=O)[C@H](CCCNC(=N)N)NC(=O)CNC(=O)[C@H](CC(C)C)NC(=O)[C@@H](NC(=O)[C@H](C)NC(=O)[C@@H](NC(=O)[C@H](CO)NC(=O)[C@H](CC(C)C)NC(=O)[C@H](CCC(N)=O)NC(=O)[C@H](CO)NC(=O)[C@H](C)NC(=O)COCCOCCNC(=O)COCCOCCNC(=O)[C@H](CCC(=O)O)NC(=O)CCCCCCCCCCCCCCCCCCC(=O)O)[C@@H](C)O)C(C)C)C(=O)N[C@@H](CO)C(=O)N[C@@H](CCC(=O)O)C(=O)N[C@@H](CCC(=O)O)C(=O)N[C@@H](CC(C)C)C(=O)N[C@@H](Cc1c[nH]cn1)C(=O)N[C@@H](CCCNC(=N)N)C(=O)N[C@@H](CC(C)C)C(=O)N[C@@H](CCC(N)=O)C(=O)N[C@@H](CC(=O)O)C(=O)N[C@@H](Cc1ccc(O)cc1)C(=O)N1CCC[C@H]1C(=O)N[C@@H](CCCNC(=N)N)C(=O)N[C@H](C(=O)N[C@@H](CC(=O)O)C(=O)N[C@H](C(=O)NCC(=O)N[C@@H](CO)C(=O)NCC(=O)N[C@@H](CO)C(=O)N1CCC[C@H]1C(N)=O)C(C)C)[C@@H](C)O [M58] ({C20 diacid}-E[AEEA][AEEA]ASQLSTAVLGRLSEELHRLQDYPRTDVGSGSP-NH2)
EC50: 17 pM
